From the CheMixHub viscosity set
Where “and” joins values, the source holds several entries; their conditions need not be identical. Identical values can stand only once.

Assays:
[1] = xn = mol fraction of the nth substance listed

OCC(O)CO
Details | viscosity
293.15 K, 100 kPa | 1360 mPa·s
294 K, 101 kPa | 1390 mPa·s
298 K, 101 kPa | 946.5 mPa·s
298.15 K, 100 kPa | 860 mPa·s
298.15 K, 101.33 kPa | 803.7 mPa·s
303 K, 101 kPa | 611.3 mPa·s and 409.6 mPa·s
303.15 K, 100 kPa | 542 mPa·s
308 K, 101 kPa | 413.9 mPa·s
308.15 K, 101 kPa | 405.8 mPa·s
308.15 K, 101.33 kPa | 351.5 mPa·s
313 K, 101 kPa | 285.5 mPa·s
313.15 K, 100 kPa | 217 mPa·s
313.15 K, 101 kPa | 231 mPa·s and 284 mPa·s and 289.4 mPa·s
318 K, 101 kPa | 213.7 mPa·s
318.15 K, 101 kPa | 182.5 mPa·s and 176.2 mPa·s
318.15 K, 101.33 kPa | 157.1 mPa·s
323 K, 101 kPa | 141 mPa·s
323.15 K, 101 kPa | 142 mPa·s and 153.8 mPa·s

[O-][Cl+3]([O-])([O-])O[Cl+3]([O-])([O-])[O-]
Details | viscosity [mPa·s]
293.15 K, 101.33 kPa | 0.698

CC(=O)N(C(C)C)C(C)C + O
[1], 298.16 K, 101 kPa
Details | viscosity [mPa·s]
x2 = 0.0812 | 2.4
x2 = 0.2041 | 2.83
x2 = 0.3933 | 3.61
x2 = 0.5827 | 4.68
x2 = 0.6893 | 5.21
x2 = 0.7296 | 5.3
x2 = 0.7747 | 5.26
x2 = 0.8218 | 4.96
x2 = 0.856 | 4.59

CCCC[P+](CC)(CCCC)CCCC.[Br-] + O
Details | viscosity [mPa·s]
[1], 303.15 K, 101 kPa, x1 = 0.008931 | 1.225

CCCCCCC(=O)O + c1ccccc1
[1], 298.15 K, 101 kPa
Details | viscosity [mPa·s]
x1 = 0.03 | 0.631
x1 = 0.063 | 0.666
x1 = 0.096 | 0.705
x1 = 0.13 | 0.752
x1 = 0.29 | 0.99
x1 = 0.38 | 1.168
x1 = 0.47 | 1.49
x1 = 0.71 | 2.3

CCOC(C)=O + c1ccccc1
[1]
Details | viscosity [mPa·s]
298 K, 101.3 kPa, x2 = 0.1715 | 0.478
298 K, 101.3 kPa, x2 = 0.3251 | 0.489
298 K, 101.3 kPa, x2 = 0.5324 | 0.507
298 K, 101.3 kPa, x2 = 0.6702 | 0.534
298 K, 101.3 kPa, x2 = 0.8535 | 0.57
298.15 K, 101 kPa, x1 = 0.0447 | 0.588
298.15 K, 101 kPa, x1 = 0.1505 | 0.556
298.15 K, 101 kPa, x1 = 0.2473 | 0.5181
298.15 K, 101 kPa, x1 = 0.2482 | 0.531
298.15 K, 101 kPa, x1 = 0.3049 | 0.499
298.15 K, 101 kPa, x1 = 0.3312 | 0.499
298.15 K, 101 kPa, x1 = 0.351 | 0.507
298.15 K, 101 kPa, x1 = 0.4099 | 0.483
298.15 K, 101 kPa, x1 = 0.4481 | 0.489
298.15 K, 101 kPa, x1 = 0.453 | 0.4803
298.15 K, 101 kPa, x1 = 0.461 | 0.4782
298.15 K, 101 kPa, x1 = 0.4981 | 0.48
298.15 K, 101 kPa, x1 = 0.5495 | 0.472
298.15 K, 101 kPa, x1 = 0.6517 | 0.458
298.15 K, 101 kPa, x1 = 0.7368 | 0.4446
298.15 K, 101 kPa, x1 = 0.7524 | 0.446
298.15 K, 101 kPa, x1 = 0.8551 | 0.437
298.15 K, 101 kPa, x1 = 0.9445 | 0.431
298.15 K, 101 kPa, x2 = 0.1725 | 0.442
298.15 K, 101 kPa, x2 = 0.5441 | 0.487
298.15 K, 101 kPa, x2 = 0.826 | 0.551
308.15 K, 101 kPa, x1 = 0.0447 | 0.515
308.15 K, 101 kPa, x1 = 0.1505 | 0.492
308.15 K, 101 kPa, x1 = 0.2482 | 0.472
308.15 K, 101 kPa, x1 = 0.351 | 0.455
308.15 K, 101 kPa, x1 = 0.4481 | 0.44
308.15 K, 101 kPa, x1 = 0.4981 | 0.433
308.15 K, 101 kPa, x1 = 0.5495 | 0.426
308.15 K, 101 kPa, x1 = 0.6517 | 0.415
308.15 K, 101 kPa, x1 = 0.7524 | 0.405
308.15 K, 101 kPa, x1 = 0.8551 | 0.396
308.15 K, 101 kPa, x1 = 0.9445 | 0.39
318 K, 101.3 kPa, x2 = 0.1624 | 0.3894
318 K, 101.3 kPa, x2 = 0.3233 | 0.3971
318 K, 101.3 kPa, x2 = 0.5251 | 0.4129
318 K, 101.3 kPa, x2 = 0.671 | 0.4287
318 K, 101.3 kPa, x2 = 0.8633 | 0.4505

CCOc1ccccc1 + c1ccccc1
viscosity [mPa·s], [1], 101.33 kPa
Details | 298.15 K | 323.15 K
x1 = 0.2 | 0.68 | 0.49
x1 = 0.5 | 0.823 | 0.576
